# Experimental data: patent US10517889B2, “Modulators of SMAD7 expression” (Ionis Pharmaceuticals, Inc., priority 2017, dated 2019)
# Assays:
# [1] = Body and organ weights after oral gavage in CD-1 mice (Example 7); type: in vivo; conditions: 500 mg/kg oral gavage once daily for 4 weeks, end of study
# Procedure: (§1) Groups of 7-8 week old male CD-1 mice were given an oral gavage dose once daily for 4 weeks of 500 mg/kg of Ionis SMAD7 oligonucleotides. Each group contained 8 mice. One group of male CD-1 mice was administered saline by oral gavage daily.
# Final body weights were measured at the end of the study. There was no significant difference in the body weight of the mice treated with antisense oligonucleotide compared to the control.
# None of the Ionis SMAD7 oligonucleotides caused any changes in organ weights outside the expected range for antisense oligonucleotides.
# [2] = Oligonucleotide concentrations in tissues by LC-MS/MS after oral gavage in CD-1 mice (Example 7); type: in vivo; conditions: 500 mg/kg oral gavage once daily for 4 weeks, 48 hours after last dose
# Procedure: as §1
# Oligonucleotide concentrations were detected in various tissues by LC-MS/MS analysis. The greatest concentration was found in the kidney, followed by the colon.
# dog SMAD7 mRNA = assay: Pharmacology: dog SMAD7 mRNA expression in liver, kidney, duodenum, ileum and colon after subcutaneous administration in beagle dogs (Example 8); type: in vivo; conditions: 30 mg/kg subcutaneous, necropsy, normalized to HPRT1
# Procedure: There were 4 animals per group.
# The pharmacological activity of the Ionis oligonucleotides in dogs was assessed by measuring dog SMAD7 mRNA expression in liver, kidney, duodenum, ileum, and colon at necropsy. All the human ASOs used are complementary to dog SMAD7 mRNA.
# Tissue samples from all dogs were analyzed for SMAD7 mRNA expression using the primer probe set RTS34649 (forward sequence […], designated SEQ ID NO: 2740; reverse sequence […], designated SEQ ID NO: 2741; probe sequence […], designated SEQ ID NO: 2742), which was normalized to mRNA levels of the housekeeping gene, HPRT1. One-way ANOVA with Dunnet's comparison test was used for statistical analysis.
# [3] = Organ weights after subcutaneous administration in CD-1 mice (Example 6); type: in vivo; conditions: end of study, 50 mg/kg subcutaneously twice a week for 7 weeks
# Procedure: (§2) Groups of 8-9 week old male CD-1 mice were injected subcutaneously twice a week for 7 weeks with 50 mg/kg of Ionis oligonucleotides (100 mg/kg/week dose). Each group contained 4 mice. One group of male CD-1 mice was injected subcutaneously twice a week for 7 weeks with PBS. Plasma was collected for analysis on day 28.
# Ionis SMAD7 oligonucleotides that caused any changes in organ weights outside the expected range for antisense oligonucleotides were excluded from further studies.
# [4] = Blood chemistry markers after oral gavage in CD-1 mice (Example 7); type: in vivo; conditions: 500 mg/kg oral gavage once daily for 4 weeks, day 30
# Procedure: The objective of this study was to evaluate the tolerability and pharmacodynamics of select Ionis human SMAD7 antisense oligonucleotides in CD-1 mice following 4 weeks of treatment. The mice were administered oligonucleotides by oral gavage.
# as §1
# Levels of transaminases, albumin, and BUN were measured using a Toshiba 200FR NEO chemistry analyzer (Toshiba Co., Japan).
# [5] = test system: human peripheral blood mononuclear cells (PBMCs); assay: Human PBMC activation assay, cytokine levels (IL-10, IL-6, MCP-1, TNF-α) in supernatant after 24 hours (Example 9); conditions: human PBMC supernatant after 24 hours
# Procedure: Ionis SMAD7 oligonucleotides were tested in an in vitro assay for potential immunostimulatory properties in an in vitro human peripheral blood mononuclear cell (PBMC) activation assay.
# Blood samples were collected from healthy human volunteers in heparinized vials and mixed well. Human PBMCs were isolated by gradient centrifugation using Ficoll-Histopaque. The cells were washed, counted and resuspended in medium. The PBMCs were plated in a 24-well culture plate and various concentrations of oligonucleotides were added to the media. An oligonucleotide historically known to promote an inflammatory response was used as a positive control, whereas an oligonucleotide known not to be pro-inflammatory was used as a negative control. […] The supernatants were collected after 24 hours and analyzed for cytokine levels using MSD platform.
# [6] = Hematology assays after subcutaneous administration in CD-1 mice (Example 6); type: in vivo; parameters: RBC / Eosinophils / Monocytes: unit not given here; conditions: 50 mg/kg subcutaneous twice weekly for 7 weeks
# Procedure: as §2
# Blood obtained from all mouse groups was measured by an ADVIA2120i hematology analyzer (Siemens, USA) for measurements of the various blood cells, as well as other hematology markers.
# [7] = Plasma chemistry markers after subcutaneous administration in beagle dogs (Example 8); conditions: 30 mg/kg subcutaneous days 1, 3, 5, 8, 15, 22, 29, plasma at day 31
# [8] = Plasma chemistry markers after subcutaneous administration in CD-1 mice (Example 6); type: in vivo; conditions: CD-1 mice plasma at day 46; 50 mg/kg subcutaneously twice a week for 7 weeks
# Procedure: CD-1® mice (Charles River, Mass.) are a multipurpose mice model, frequently utilized for safety and efficacy testing. The mice were treated with Ionis human SMAD7 antisense oligonucleotides selected from studies described above and evaluated.
# Groups of 8-9 week old male CD-1 mice were injected subcutaneously twice a week for 7 weeks with 50 mg/kg of Ionis oligonucleotides (100 mg/kg/week dose). Each group contained 4 mice. One group of male CD-1 mice was injected subcutaneously twice a week for 7 weeks with PBS. […]
substance,measurement,setting,value
"790615 (CCAATGAGAATGCTTC; 3-10-3 cEt gapmer, further chemistry not given here) [compound 790615]",Body weight,[1],35 g
same,Heart weight,[1],0.17 g
same,Kidneys weight,[1],0.64 g
same,Liver with gallbladder weight,[1],1.88 g
same,Spleen weight,[1],0.11 g
same,"Oligonucleotide concentration, Colon",[2]; colon,2.9 µg/g
same,"Oligonucleotide concentration, Duodenum",[2]; duodenum,0.9 µg/g
same,"Oligonucleotide concentration, Ileum",[2]; ileum,1.6 µg/g
same,"Oligonucleotide concentration, Kidney",[2]; kidney,23.6 µg/g
same,"Oligonucleotide concentration, Liver",[2]; liver,2.8 µg/g
same,"% inhibition of SMAD7 mRNA expression (compared to control), Distal colon",dog SMAD7 mRNA; distal colon,31%
same,"% inhibition of SMAD7 mRNA expression (compared to control), Duodenum",dog SMAD7 mRNA; duodenum,35%
same,"% inhibition of SMAD7 mRNA expression (compared to control), Ileum",dog SMAD7 mRNA; ileum,0%
same,"% inhibition of Smad7 mRNA expression (compared to control), Kidney",dog SMAD7 mRNA; kidney,37%
same,"% inhibition of Smad7 mRNA expression (compared to control), Liver",dog SMAD7 mRNA; liver,9%
same,"% inhibition of SMAD7 mRNA expression (compared to control), Proximal colon",dog SMAD7 mRNA; proximal colon,41%
same,"Organ weights, Kidneys",[3],0.6 g
same,"Organ weights, Liver",[3],2.0 g
same,"Organ weights, Spleen",[3],0.2 g
same,ALT,[4],41 IU/L
same,AST,[4],77 IU/L
same,Albumin,[4],3.3 g/dL
same,BUN,[4],22 mg/dL
same,Bilirubin,[4],0.3 mg/dL
same,Levels of IL-6,[5]; 0.0128 μM oligonucleotide,3.7 pg/mL
same,Levels of IL-10,[5]; 0.0128 μM oligonucleotide,1.1 pg/mL
same,Levels of MCP-1,[5]; 0.0128 μM oligonucleotide,329.5 pg/mL
same,Levels of TNF-α,[5]; 0.0128 μM oligonucleotide,3.1 pg/mL
same,Levels of IL-6,[5]; 0.064 μM oligonucleotide,3.8 pg/mL
same,Levels of IL-10,[5]; 0.064 μM oligonucleotide,1.6 pg/mL
same,Levels of MCP-1,[5]; 0.064 μM oligonucleotide,281.8 pg/mL
same,Levels of TNF-α,[5]; 0.064 μM oligonucleotide,2.5 pg/mL
same,Levels of IL-6,[5]; 0.32 μM oligonucleotide,6.5 pg/mL
same,Levels of IL-10,[5]; 0.32 μM oligonucleotide,2.4 pg/mL
same,Levels of MCP-1,[5]; 0.32 μM oligonucleotide,424.3 pg/mL
same,Levels of TNF-α,[5]; 0.32 μM oligonucleotide,3.4 pg/mL
same,Levels of IL-6,[5]; 1.6 μM oligonucleotide,9.0 pg/mL
same,Levels of IL-10,[5]; 1.6 μM oligonucleotide,3.1 pg/mL
same,Levels of MCP-1,[5]; 1.6 μM oligonucleotide,495.8 pg/mL
same,Levels of TNF-α,[5]; 1.6 μM oligonucleotide,4.2 pg/mL
same,Levels of IL-6,[5]; 8 μM oligonucleotide,10.0 pg/mL
same,Levels of IL-10,[5]; 8 μM oligonucleotide,1.9 pg/mL
same,Levels of MCP-1,[5]; 8 μM oligonucleotide,449.0 pg/mL
same,Levels of TNF-α,[5]; 8 μM oligonucleotide,4.8 pg/mL
same,Levels of IL-6,[5]; 40 μM oligonucleotide,11.0 pg/mL
same,Levels of IL-10,[5]; 40 μM oligonucleotide,0.8 pg/mL
same,Levels of MCP-1,[5]; 40 μM oligonucleotide,301.9 pg/mL
same,Levels of TNF-α,[5]; 40 μM oligonucleotide,4.8 pg/mL
same,Levels of IL-6,[5]; 200 μM oligonucleotide,22.9 pg/mL
same,Levels of IL-10,[5]; 200 μM oligonucleotide,0.7 pg/mL
same,Levels of MCP-1,[5]; 200 μM oligonucleotide,81.6 pg/mL
same,Levels of TNF-α,[5]; 200 μM oligonucleotide,4.8 pg/mL
same,Eosinophils,[6],2.5
same,Hematocrit,[6],46.2%
same,Hemoglobin,[6],15.2 g/dL
same,Lymphocytes,[6],82.8%
same,MCH,[6],14.7 pg
same,MCHC,[6],32.8 g/dL
same,MCV,[6],44.8 fL
same,Monocytes,[6],5.0
same,Neutrophils,[6],9.7%
same,RBC,[6],10.3
same,Reticulocytes,[6],3.5%
same,WBC,[6],10.5 10^3/μL
same,platelets,[6],1055.8 10^3/μL
same,Basophils,[6]; n.d. = below detection levels,0.1 10^3/μL
same,ALT,[7],38 IU/L
same,AST,[7],41 IU/L
same,Albumin,[7],3.4 g/dL
same,BUN,[7],15.7 mg/dL
same,Bilirubin,[7],0.2 mg/dL
same,Creatine,[7],0.8 mg/dL
same,ALT,[8],65 IU/L
same,AST,[8],97 IU/L
same,Albumin,[8],2.2 g/dL
same,BUN,[8],22 mg/dL
